From ChEMBL document CHEMBL1828614, “Discovery of a new class of HMG-CoA reductase inhibitor from Polyalthia longifolia as potential lipid lowering agent” (Eur J Med Chem, 2011) come the findings set out here.

One may read the AUC(0-t) as the area under the concentration-time curve up to a stated or last time point. One may read the CL/F as the apparent clearance, not corrected for the fraction that reaches the circulation. The term Tmax denotes the time at which the peak concentration occurs. The Cmax is the highest concentration seen after dosing. What is called MRT is a mean duration of stay, worked out from the concentration-time curve. The term IC50 denotes the concentration that gives 50% inhibition.

Series [1] deals with Syrian golden hamster. Put plainly: Toxicity in Syrian golden hamster assessed as effect of food intake at 25 mg/kg, po. It is filed as organism-based, Mesocricetus auratus. Also on record: dose 25 mg/kg, route oral. Particulars: in vivo.
The test system of series [2] is Syrian golden hamster. The series can be described thus: Toxicity in Syrian golden hamster assessed as weight gain at 25 mg/kg, po. It is filed as organism-based, Mesocricetus auratus. Also on record: dose 25 mg/kg, route oral. Particulars: in vivo.
In series [3] the test system is Syrian golden hamster. Put plainly: Apparent volume of distribution in high fat diet fed Syrian golden hamster at 25 mg/kg, po. It is filed as ADME, organism-based, Mesocricetus auratus. Also on record: dose 25 mg/kg, route oral. To be noted: in vivo.
In series [4] the test system is Syrian golden hamster. Put plainly: Hypolipidemic activity in high fat diet fed Syrian golden hamster assessed as increase in HDL-cholesterol-total cholesterol ratio at 25 mg/kg, po for 7 days. It is filed as functional, Mesocricetus auratus.
The subject of series [5] is Syrian golden hamster. The series can be described thus: Hypolipidemic activity in high fat diet fed Syrian golden hamster assessed as reduction of triglyceride level at 100 mg/kg, po for 7 days. It is filed as functional, Mesocricetus auratus. Also on record: scale not given: the % may be the effect or the level left.
The nature of series [6]: AUC (0 to t) in high fat diet fed Syrian golden hamster at 25 mg/kg, po. It is filed as ADME, organism-based, Mesocricetus auratus. Also noted: dose 25 mg/kg, route oral. To be noted: plasma.
A short description of series [7]: Apparent oral clearance in high fat diet fed Syrian golden hamster at 25 mg/kg, po. To be noted: in vivo. It is filed as ADME, organism-based, Mesocricetus auratus. Also on record: dose 25 mg/kg, route oral.
Series [8] is described as follows: Tmax in high fat diet fed Syrian golden hamster at 25 mg/kg, po. It is filed as ADME, organism-based, Mesocricetus auratus. Also on record: dose 25 mg/kg, route oral. Particulars: in vivo.
Series [9] has as its system Syrian golden hamster. Put plainly: Hypolipidemic activity in high fat diet fed Syrian golden hamster assessed as reduction of glycerol level at 5 mg/kg, po for 7 days. Also on record: scale not given: the % may be the effect or the level left. It is filed as functional, Mesocricetus auratus.
Series [10] in a line: Cmax in high fat diet fed Syrian golden hamster at 25 mg/kg, po. It is filed as ADME, organism-based, Mesocricetus auratus. Also noted: dose 25 mg/kg, route oral. To be noted: in vivo.
Series [11] relates to Syrian golden hamster. Put plainly: Hypolipidemic activity in high fat diet fed Syrian golden hamster assessed as reduction of total cholesterol level at 25 mg/kg, po for 7 days. It is filed as functional, Mesocricetus auratus. Also on record: scale not given: the % may be the effect or the level left.
The subject of series [12] is Syrian golden hamster. The series can be described thus: Hypolipidemic activity in high fat diet fed Syrian golden hamster assessed as reduction of triglyceride level at 5 mg/kg, po for 7 days. Also noted: scale not given: the % may be the effect or the level left. It is filed as functional, Mesocricetus auratus.
The test system of series [13] is Syrian golden hamster. The series can be described thus: Hypolipidemic activity in high fat diet fed Syrian golden hamster assessed as reduction of total cholesterol level at 50 mg/kg, po for 7 days. It is filed as functional, Mesocricetus auratus. Also on record: scale not given: the % may be the effect or the level left.
Series [14] concerns Syrian golden hamster. The series can be described thus: Hypolipidemic activity in high fat diet fed Syrian golden hamster assessed as reduction of total cholesterol level at 5 mg/kg, po for 7 days. Also noted: scale not given: the % may be the effect or the level left. It is filed as functional, Mesocricetus auratus.
Series [15] is described as follows: Mean residence time in high fat diet fed Syrian golden hamster at 25 mg/kg, po. To be noted: in vivo. It is filed as ADME, organism-based, Mesocricetus auratus. Also noted: dose 25 mg/kg, route oral.
Series [16] relates to Syrian golden hamster. Put plainly: Hypolipidemic activity in high fat diet fed Syrian golden hamster assessed as reduction of glycerol level at 100 mg/kg, po for 7 days. It is filed as functional, Mesocricetus auratus. Also noted: scale not given: the % may be the effect or the level left.
In series [17] the test system is Syrian golden hamster. Put plainly: Hypolipidemic activity in high fat diet fed Syrian golden hamster assessed as reduction of total cholesterol level at 10 mg/kg, po for 7 days. It is filed as functional, Mesocricetus auratus. Also on record: scale not given: the % may be the effect or the level left.
In series [18] the test system is Syrian golden hamster. The series can be described thus: Hypolipidemic activity in high fat diet fed Syrian golden hamster assessed as reduction of triglyceride level at 50 mg/kg, po for 7 days. It is filed as functional, Mesocricetus auratus. Also on record: scale not given: the % may be the effect or the level left.
Series [19] deals with T1, 3-hydroxy-3-methylglutaryl-coenzyme A reductase (Homo sapiens, UniProt P04035).
T1 sequence (P04035 whole entry): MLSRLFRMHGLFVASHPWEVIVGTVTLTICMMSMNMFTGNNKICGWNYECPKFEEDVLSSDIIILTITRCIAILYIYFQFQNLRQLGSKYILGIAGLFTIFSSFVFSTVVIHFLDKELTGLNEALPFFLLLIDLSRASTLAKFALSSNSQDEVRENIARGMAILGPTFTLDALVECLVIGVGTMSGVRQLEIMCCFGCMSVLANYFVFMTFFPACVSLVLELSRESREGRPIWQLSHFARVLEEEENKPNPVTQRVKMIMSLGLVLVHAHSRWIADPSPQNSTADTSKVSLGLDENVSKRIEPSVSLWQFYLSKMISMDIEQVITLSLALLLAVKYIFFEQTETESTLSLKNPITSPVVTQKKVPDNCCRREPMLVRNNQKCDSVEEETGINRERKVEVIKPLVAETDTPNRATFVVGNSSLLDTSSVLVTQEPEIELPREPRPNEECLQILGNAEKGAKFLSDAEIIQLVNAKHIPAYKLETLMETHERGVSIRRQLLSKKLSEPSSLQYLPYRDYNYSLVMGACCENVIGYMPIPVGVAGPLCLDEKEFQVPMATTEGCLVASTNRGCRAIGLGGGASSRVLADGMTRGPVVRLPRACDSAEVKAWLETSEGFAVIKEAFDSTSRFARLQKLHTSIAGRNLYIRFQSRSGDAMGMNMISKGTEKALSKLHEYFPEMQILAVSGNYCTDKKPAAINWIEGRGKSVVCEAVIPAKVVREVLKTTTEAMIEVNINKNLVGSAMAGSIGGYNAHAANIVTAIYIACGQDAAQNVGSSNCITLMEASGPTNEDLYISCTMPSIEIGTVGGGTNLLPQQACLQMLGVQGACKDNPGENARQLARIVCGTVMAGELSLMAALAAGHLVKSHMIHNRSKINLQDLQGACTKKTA
Put plainly: Inhibition of HMG-CoA reductase using HMG-CoA as substrate by spectrophotometry in presence of NADPH.

The test system of series [20] is Syrian golden hamster. Put plainly: Hypolipidemic activity in high fat diet fed Syrian golden hamster assessed as reduction of triglyceride level at 25 mg/kg, po for 7 days. It is filed as functional, Mesocricetus auratus. Also noted: scale not given: the % may be the effect or the level left.
Series [21] has as its system Syrian golden hamster. The series can be described thus: Hypolipidemic activity in high fat diet fed Syrian golden hamster assessed as reduction of total cholesterol level at 100 mg/kg, po for 7 days. It is filed as functional, Mesocricetus auratus. Also on record: scale not given: the % may be the effect or the level left.
Series [22] relates to Syrian golden hamster. The series can be described thus: Hypolipidemic activity in high fat diet fed Syrian golden hamster assessed as increase in HDL-cholesterol-total cholesterol ratio at 10 mg/kg, po for 7 days. It is filed as functional, Mesocricetus auratus.
Series [23] has as its system Syrian golden hamster. The series can be described thus: Hypolipidemic activity in high fat diet fed Syrian golden hamster assessed as reduction of glycerol level at 50 mg/kg, po for 7 days. It is filed as functional, Mesocricetus auratus. Also noted: scale not given: the % may be the effect or the level left.
For series [24], the system named is Syrian golden hamster. Put plainly: Hypolipidemic activity in high fat diet fed Syrian golden hamster assessed as increase in HDL-cholesterol-total cholesterol ratio at 100 mg/kg, po for 7 days. It is filed as functional, Mesocricetus auratus.
Series [25] concerns Syrian golden hamster. The series can be described thus: Hypolipidemic activity in high fat diet fed Syrian golden hamster assessed as reduction of glycerol level at 25 mg/kg, po for 7 days. It is filed as functional, Mesocricetus auratus. Also on record: scale not given: the % may be the effect or the level left.
Series [26] relates to Syrian golden hamster. Put plainly: Hypolipidemic activity in high fat diet fed Syrian golden hamster assessed as increase in HDL-cholesterol-total cholesterol ratio at 50 mg/kg, po for 7 days. It is filed as functional, Mesocricetus auratus.
Series [27] relates to Syrian golden hamster. Put plainly: Hypolipidemic activity in high fat diet fed Syrian golden hamster assessed as increase in HDL-cholesterol-total cholesterol ratio at 5 mg/kg, po for 7 days. It is filed as functional, Mesocricetus auratus.
In series [28] the test system is Syrian golden hamster. Put plainly: Hypolipidemic activity in high fat diet fed Syrian golden hamster assessed as reduction of triglyceride level at 10 mg/kg, po for 7 days. It is filed as functional, Mesocricetus auratus. Also noted: scale not given: the % may be the effect or the level left.
In series [29] the test system is Syrian golden hamster. Put plainly: Hypolipidemic activity in high fat diet fed Syrian golden hamster assessed as reduction of glycerol level at 10 mg/kg, po for 7 days. It is filed as functional, Mesocricetus auratus. Also noted: scale not given: the % may be the effect or the level left.

SMILES strings stand for the structures.

In the case of `CC1=CCC[C@@H]2[C@@](C)(CC/C(C=O)=C\C(=O)O)[C@H](C)CC[C@@]12C`, the Activity result in the series with Syrian golden hamster [1] and in the series on Syrian golden hamster [2] was “Non-toxic” throughout.
Consider `C=C1[C@@H](O)CC[C@@H]2[C@@](C)(CCC3=CC(=O)O[C@@H]3O)[C@H](C)CC[C@@]12C`, for which the Activity result in the series with Syrian golden hamster [1] and with Syrian golden hamster [2] was “Non-toxic” throughout.
Turning to `CC1=CCC[C@@H]2[C@@](C)(CCC3=CC(=O)O[C@@H]3O)[C@H](C)CC[C@@]12C`, the Vz in the series with Syrian golden hamster [3] came to 17.78 L/kg. Besides, the Ratio turned out to be 48 with Syrian golden hamster [4]; 12 in the series on Syrian golden hamster [22]; 46 with Syrian golden hamster [24]; 54 in the series on Syrian golden hamster [26]; 12 in the series on Syrian golden hamster [27]. Moreover, the Activity in the series with Syrian golden hamster [5] is 43%; in the series with Syrian golden hamster [9] it was 10%; with Syrian golden hamster [11], 41%; in the series on Syrian golden hamster [12], 19%; in the series with Syrian golden hamster [13] it was 55%; in the series on Syrian golden hamster [1] it was “Non-toxic”. The Activity with Syrian golden hamster [14] is recorded as 27%; in the series on Syrian golden hamster [16], 43%; in the series with Syrian golden hamster [17], 23%; in the series with Syrian golden hamster [18], 46%; with Syrian golden hamster [2], “Non-toxic”; in the series on Syrian golden hamster [20] it was 45%. The Activity in the series with Syrian golden hamster [21] is 54%; in the series on Syrian golden hamster [23], 48%; with Syrian golden hamster [25], 37%; in the series on Syrian golden hamster [28], 26%; with Syrian golden hamster [29], 5%. Besides, the AUC(0-t) in series [6] was 5740 ng·h/mL. Besides, the CL/F in series [7] is 72.5 mL/min/kg. Further, the Tmax in series [8] is 0.5 h. The concentration in series [10] peaked (Cmax) at 2490 ng/mL. In series [15], this compound yielded an MRT of 4.52 h. In addition, the IC50 in series [19] was found to be 30.2 µM.
On to `CC1=C(C=O)CC2[C@@]1(C)CC[C@@H](C)[C@]2(C)CCC1=CC(=O)O[C@@H]1O` (mixture of isomers), for which the Activity entry in the series on Syrian golden hamster [1] and in the series with Syrian golden hamster [2] was “Non-toxic” in each case.
On to `CC[C@H](C)C(=O)O[C@H]1C[C@@H](C)C=C2C=C[C@H](C)[C@H](CC[C@@H]3C[C@@H](O)CC(=O)O3)[C@H]21` [LOVASTATIN], for which the Activity with Syrian golden hamster [11] worked out at 9%; in the series with Syrian golden hamster [20] it was 29%; with Syrian golden hamster [25], 35%.
